Assay results from US20240245647A1, “ISOMEROHYDROLASE INHIBITOR FOR TREATMENT OF ATROPHIC FORM OF AGE-RELATED MACULAR DEGENERATION AND STARGARDT DISEASE” (The Trustees of Columbia University in the City of New York, priority 2021, published 2024).
In brackets after ≈: the same amount, converted by molar mass.

Assay: Thermodynamic aqueous solubility, shake-flask
Type: physicochemical
Details: PBS pH 7.4, 24 h, 25° C., assay standards
Text: In addition, chromatographic purity (%) was defined as the peak area of the principal peak relative to the total integrated peak area in the HPLC chromatogram of the calibration standard. A chromatogram of the calibration standard of each test compound, along with a UV/VIS spectrum with labeled absorbance maxima, was generated.

[1] = PBS (shake-flask), aqueous buffer, thermodynamic from solid

SMILES	solubility at 24 h [1] [µM]	solubility at 24 h [µM]
CC(=O)N1CCN(c2ccc(OCC3COC(Cn4ccnc4)(c4ccc(Cl)cc4Cl)O3)cc2)CC1 (centres unmarked) [Ketoconazole]	153 (≈ 81.2 µg/mL)	
CO[C@H]1/C=C/O[C@@]2(C)Oc3c(C)c(O)c4c(O)c(c(/C=N/N5CCN(C)CC5)c(O)c4c3C2=O)NC(=O)/C(C)=C\C=C\[C@H](C)[C@H](O)[C@@H](C)[C@@H](O)[C@@H](C)[C@H](OC(C)=O)[C@@H]1C [Rifampicin]	200 (≈ 165 µg/mL)	
CC/C(=C(/CC)c1ccc(O)cc1)c1ccc(O)cc1 [Diethylstilbesterol]		7.0 (≈ 1.88 µg/mL)
O=C1NC(=O)C(c2ccccc2)(c2ccccc2)N1 [Phenytoin]	102 (≈ 25.7 µg/mL)	
COCCc1ccc(OCC(O)CNC(C)C)cc1 (centres unmarked) [Metoprolol]	193 (≈ 51.5 µg/mL)	
